Measurements reported in EP0185066B1, “SULPHUR-CONTAINING DERIVATIVES OF PARA-METHOXYCINNAMIC ACID, PRODUCTION PROCESSES THEREOF, DERMO-PHARMACEUTICAL AND COSMETIC COMPOSITIONS CONTAINING THEM AND APPLICATIONS” (UNIVERSITE LOUIS PASTEUR (STRASBOURG I), priority 1984, dated 1986).

How the values were obtained:
[1] = UV absorption spectrum (sunscreen filtering range); type: physicochemical
Excerpt: Les composés de formule III conformes à la présente invention possèdent des propriétés de filtres solaires intéressants. Ils présentent un maximum d'efficacité tant au niveau de leur capacité d'absorption ultra-violette qu'à celui de leur fixation sur la peau. Leur spectre d'absorption se situe dans la zone des U.V.B. érythématogènes avec un maximum vers 310 nm; ils laissent passer les rayons U.V.A.

[2] = parameters: species or system lapin; conditions: in vivo
Excerpt: Une étude in vivo de la fixation des filtres soufrés de formules III et Il à la couche cornée a été réalisée sur la peau de lapin. Aucune trace d'acide para-méthoxycinnamique, métabolite de tout filtre solaire de formules III ou II, n'a pu être décelée dans le sang des lapins traités. La méthode d'analyse par chromatographie en phase gazeuse couplée à la spectrométrie de masse permet de déceler des concentrations de l'ordre de 10 pg. L'on peut donc en conclure que ces composés ne pénètrent pas dans le torrent circulatoire, contrairement au para-méthoxycinnamate d'éthyle-2-hexyle évoqué dans le préambule ainsi que les produits obtenus à partir du Brevet Pierre FABRE.
Le composé présentant des propriétés de filtre solaire, conforme à la présente invention est incorporé à la concentration 5% dans une émulsion qui peut avoir par exemple la composition suivante:
Méthode de recherche de l'acide para-méthoxycinnamique (métabolite) dans le sang de lapin après application des filtres solaires soufrés conformes à l'invention incorporé dans l'émulsion précédente. • - Conditions d'application et préjèvement plasmatiques
2 g d'émulsion à tester sont appliqués sur la peau épilée du lapin. […] Les mesures sont effectuées sur la fraction plasmatique. - Déterminations quantitatives en CPG(SM […]

| Structure (SMILES) | maximum d'absorption U.V. [1] | concentration d'acide para-méthoxycinnamique retrouvé dans le sang [2] |
| --- | --- | --- |
| COc1ccc(/C=C/C(=O)OCCS)cc1 [II, para-méthoxycinnamatede thio-2-éthanol] | 310 nm | – |
| COc1ccc(/C=C/C(=O)OCCSSCC(N)C(=O)O)cc1 (stereo not drawn) [III (n = 2, m = 1, R2 = H et R1 = OH)] | 310 nm | – |
| CCCCC(CC)COC(=O)C=Cc1ccc(OC)cc1 (stereo not drawn) [PMCEH, para-méthoxycinnamate d'éthyle-2 hexyle] | – | comprise entre le ng et plusieurs µg |
